Publication PMC12714101, “CD160-Derived Peptide as a Bidirectional Inhibitor Toward Immune Checkpoints BTLA/HVEM and HVEM/LIGHT” (Journal of Medicinal Chemistry, 2025)
Where a SMILES comes first, the peptide text is derived from it.

Target: T1, BTLA/HVEM complex (Homo sapiens, UniProt Q92956)
T1 construct: purchased ACROBiosystems HVM-H52E9 (HVEM-His); BTA-H5255 (BTLA-Fc)
T1 sequence (Q92956 39-202 limits assumed): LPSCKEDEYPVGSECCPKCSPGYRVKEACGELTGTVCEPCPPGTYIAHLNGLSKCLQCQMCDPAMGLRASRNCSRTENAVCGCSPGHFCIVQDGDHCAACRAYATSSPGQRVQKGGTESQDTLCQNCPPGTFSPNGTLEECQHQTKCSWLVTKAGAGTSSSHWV
Experiment: ELISA inhibition of BTLA/HVEM complex formation
Format: biochemical
Settings: immobilized HVEM-His, BTLA-Fc 5 μg/mL, PBS-T, 37 °C, mean of three independent experiments; for inhibition at 16.67 µM: peptide 16.67 μM; for inhibition at 50 µM: peptide 50 μM; for inhibition at 150 µM: peptide 150 μM
Experimental: In the subsequent stage of the study, the potential of the obtained compounds to inhibit the interaction between BTLA and HVEM proteins was evaluated using ELISA, following the methodology described in our previous studies. , HVEM was immobilized on the plate and incubated with peptides at three different concentrations, followed by the addition of Fc-tagged BTLA. Detection was carried out using horseradish peroxidase (HRP) conjugated with anti-human IgG and 3,3′,5,5′-tetramethylbenzidine (TMB) as a substrate. Signal intensity was directly proportional to the amount of BTLA bound to HVEM and inversely proportional to the inhibitory activity of the tested peptides. As a control, BTLA and HVEM were incubated in the absence of peptides.
Recombinant human HVEM protein with a His tag was purchased from ACROBiosystems, Newark, DE, USA (no. HVM-H52E9). Recombinant human protein BTLA-Fc and LIGHT-Fc were also purchased from ACROBiosystems, Newark, DE, USA (no. BTA-H5255 and no. LIT-H5269).
ELISA was performed using transparent 96-well NUNC Maxisorp plates (Thermo Fisher Scientific, Waltham, MA, USA). In the first step, HVEM-His, dissolved in PBS at a concentration of 5 μg/mL (100 μL/well), was immobilized on the plate by overnight incubation at 4 °C. Wells were then blocked with 5% bovine serum albumin (BSA) in PBS containing 0.05% Tween 20 (PBS-T) (200 μL/well). Next, peptides dissolved in PBS-T at concentrations of 150, 50, and 16.67 μM were added to the wells (100 μL/well). Following this, BTLA-Fc in PBS-T at a concentration of 5 μg/mL (100 μL/well) was applied. In the next step, goat anti-human IgG antibody conjugated with the HRP (Bio-Rad Laboratories, Hercules, CA, USA) in PBS-T at a ratio of 1:30,000 (v/v) was added (100 μL/well). Colorimetric detection was performed by adding 100 μL of TMB substrate (Thermo Fisher Scientific, Waltham, MA, USA) to each well and incubating the plate in the dark. At each stage, plates were incubated at 37 °C with continuous shaking for 1 h (except TMB, which was incubated for 15 min). After each incubation, wells were washed five times with PBS-T. Absorbance was measured using an Infinite M200 Pro Reader (Tecan Group Ltd., Männedorf, Switzerland) at wavelengths of 650 nm (measurement wavelength) and 492 nm (reference wavelength). Inhibition assays for the HVEM/LIGHT complex were conducted using the same approach, except that LIGHT was used instead of BTLA. The BTLA/HVEM and HVEM/LIGHT complexes without peptides served as controls. Inhibition percentages were calculated based on the assumption that PBS-T has no effect on the formation of BTLA/HVEM or HVEM/LIGHT complexes. Each ELISA was conducted in at least three independent replicates. The data were analyzed using GraphPad Prism 8 software (San Diego, CA, USA).

SMILES | inhibition at 16.67 µM | inhibition at 50 µM | inhibition at 150 µM
CC[C@H](NC(=O)[C@H](CC)NC(=O)[C@H](CCC(N)=O)NC(=O)[C@H](Cc1ccc(O)cc1)NC(C)=O)C(=O)N[C@@H](C)C(=O)N[C@@H](CCCNC(=N)N)C(=O)N[C@@H](CO)C(=O)N[C@@H](CCC(N)=O)C(=O)N[C@@H](CCCCN)C(=O)N[C@@H](CO)C(=O)NCC(=O)N[C@H](C(=O)N[C@@H](CCCNC(=N)N)C(=O)N[C@@H](CC(C)C)C(=O)N[C@@H](CCC(N)=O)C(=O)NCC(=O)N[C@@H](Cc1c[nH]cn1)C(=O)N[C@@H](Cc1ccccc1)C(=O)N[C@@H](Cc1ccccc1)C(N)=O)[C@@H](C)CC [A1, CD160(110–128)^(C112X,C113X)] (HELM PEPTIDE1{[ac].Y.Q.[Abu].[Abu].A.R.S.Q.K.S.G.I.R.L.Q.G.H.F.F.[am]}$$$$V2.0) | 4.31% | 6.28% | 7.44%
CC[C@@H]1NC(=O)[C@H](CC)NC(=O)[C@@H](NC(=O)[C@H](Cc2ccc(O)cc2)NC(C)=O)CSSC[C@@H](C(=O)N[C@@H](Cc2ccccc2)C(N)=O)NC(=O)[C@H](Cc2c[nH]cn2)NC(=O)CNC(=O)[C@H](CCC(N)=O)NC(=O)[C@H](CC(C)C)NC(=O)[C@H](CCCNC(=N)N)NC(=O)[C@H]([C@@H](C)CC)NC(=O)CNC(=O)[C@H](CO)NC(=O)[C@H](CCCCN)NC(=O)[C@H](CCC(N)=O)NC(=O)[C@H](CO)NC(=O)[C@H](CCCNC(=N)N)NC(=O)[C@H](C)NC1=O [A2, CD160(110–128)^(Q111C,C112X,C113X,F127C)] (HELM PEPTIDE1{[ac].Y.C.[Abu].[Abu].A.R.S.Q.K.S.G.I.R.L.Q.G.H.C.F.[am]}$PEPTIDE1,PEPTIDE1,3:R3-19:R3$$$V2.0) | 1.45% | 3% | 2.26%
CC[C@H](NC(=O)[C@H](CCC(N)=O)NC(=O)[C@H](Cc1ccc(O)cc1)NC(C)=O)C(=O)N[C@H]1CSSC[C@@H](C(=O)NCC(=O)N[C@@H](Cc2c[nH]cn2)C(=O)N[C@@H](Cc2ccccc2)C(=O)N[C@@H](Cc2ccccc2)C(N)=O)NC(=O)[C@H](CC(C)C)NC(=O)[C@H](CCCNC(=N)N)NC(=O)[C@H]([C@@H](C)CC)NC(=O)CNC(=O)[C@H](CO)NC(=O)[C@H](CCCCN)NC(=O)[C@H](CCC(N)=O)NC(=O)[C@H](CO)NC(=O)[C@H](CCCNC(=N)N)NC(=O)[C@H](C)NC1=O [A3, CD160(110–128)^(C112X,Q124C)] (HELM PEPTIDE1{[ac].Y.Q.[Abu].C.A.R.S.Q.K.S.G.I.R.L.C.G.H.F.F.[am]}$PEPTIDE1,PEPTIDE1,5:R3-16:R3$$$V2.0) | -0.96% | -0.72% | 3.85%
CC[C@H](NC(=O)[C@H](CCC(N)=O)NC(=O)[C@H](Cc1ccc(O)cc1)NC(C)=O)C(=O)N[C@@H](CC)C(=O)N[C@H]1CSSC[C@@H](C(=O)N[C@@H](CCC(N)=O)C(=O)NCC(=O)N[C@@H](Cc2c[nH]cn2)C(=O)N[C@@H](Cc2ccccc2)C(=O)N[C@@H](Cc2ccccc2)C(N)=O)NC(=O)[C@H](CCCNC(=N)N)NC(=O)[C@H]([C@@H](C)CC)NC(=O)CNC(=O)[C@H](CO)NC(=O)[C@H](CCCCN)NC(=O)[C@H](CCC(N)=O)NC(=O)[C@H](CO)NC(=O)[C@H](CCCNC(=N)N)NC1=O [A4, CD160(110–128)^(C112X,C113X,A114C,L123C)] (HELM PEPTIDE1{[ac].Y.Q.[Abu].[Abu].C.R.S.Q.K.S.G.I.R.C.Q.G.H.F.F.[am]}$PEPTIDE1,PEPTIDE1,6:R3-15:R3$$$V2.0) | -2.23% | -0.34% | -1.77%
CC[C@H](NC(=O)[C@H](CC(C)C)NC(=O)[C@H](Cc1ccccc1)NC(=O)[C@@H](NC(=O)[C@@H](NC(=O)[C@H](Cc1ccccc1)NC(C)=O)C(C)C)C(C)C)C(=O)N[C@@H](CCCCN)C(=O)N[C@@H](CC(=O)O)C(=O)N[C@@H](CCCNC(=N)N)C(=O)N[C@@H](CO)C(=O)NCC(=O)N[C@@H](CC(=O)O)C(=O)N[C@@H](CC)C(=O)N[C@@H](CO)C(=O)N1CCC[C@H]1C(=O)N[C@@H](CCC(=O)O)C(=O)N[C@H](C(=O)N[C@@H](CO)C(=O)N[C@@H](CC(C)C)C(=O)N[C@@H](CCCCN)C(=O)N[C@@H](CCC(N)=O)C(=O)N[C@@H](CC(C)C)C(=O)N[C@@H](CCCNC(=N)N)C(=O)N[C@@H](CC(C)C)C(N)=O)[C@@H](C)O [B1, CD160(56–79)^(C61X,C68X)] (HELM PEPTIDE1{[ac].F.V.V.F.L.[Abu].K.D.R.S.G.D.[Abu].S.P.E.T.S.L.K.Q.L.R.L.[am]}$$$$V2.0) | 1.49% | 4.68% | –
CC[C@@H]1NC(=O)[C@@H](NC(=O)[C@H](Cc2ccccc2)NC(=O)[C@@H](NC(=O)[C@@H](NC(=O)[C@H](Cc2ccccc2)NC(C)=O)C(C)C)C(C)C)CSSC[C@@H](C(=O)N[C@@H](CCCCN)C(=O)N[C@@H](CCC(N)=O)C(=O)N[C@@H](CC(C)C)C(=O)N[C@@H](CCCNC(=N)N)C(=O)N[C@@H](CC(C)C)C(N)=O)NC(=O)[C@H](CO)NC(=O)[C@H]([C@@H](C)O)NC(=O)[C@H](CCC(=O)O)NC(=O)[C@@H]2CCCN2C(=O)[C@H](CO)NC(=O)[C@H](CC)NC(=O)[C@H](CC(=O)O)NC(=O)CNC(=O)[C@H](CO)NC(=O)[C@H](CCCNC(=N)N)NC(=O)[C@H](CC(=O)O)NC(=O)[C@H](CCCCN)NC1=O [B3, CD160(56–79) ^(L60C,C61X,C68X,L74C)] (HELM PEPTIDE1{[ac].F.V.V.F.C.[Abu].K.D.R.S.G.D.[Abu].S.P.E.T.S.C.K.Q.L.R.L.[am]}$PEPTIDE1,PEPTIDE1,6:R3-20:R3$$$V2.0) | -4.44% | -5.5% | -4.74%
CC[C@@H]1NC(=O)[C@H](CC(C)C)NC(=O)[C@@H](NC(=O)[C@@H](NC(=O)[C@@H](NC(=O)[C@H](Cc2ccccc2)NC(C)=O)C(C)C)C(C)C)CSSC[C@@H](C(=O)N[C@@H](CC(C)C)C(=O)N[C@@H](CCCNC(=N)N)C(=O)N[C@@H](CC(C)C)C(N)=O)NC(=O)[C@H](CCCCN)NC(=O)[C@H](CC(C)C)NC(=O)[C@H](CO)NC(=O)[C@H]([C@@H](C)O)NC(=O)[C@H](CCC(=O)O)NC(=O)[C@@H]2CCCN2C(=O)[C@H](CO)NC(=O)[C@H](CC)NC(=O)[C@H](CC(=O)O)NC(=O)CNC(=O)[C@H](CO)NC(=O)[C@H](CCCNC(=N)N)NC(=O)[C@H](CC(=O)O)NC(=O)[C@H](CCCCN)NC1=O [B4, CD160(56–79)^(F59C,C61X,C68X,Q76C)] (HELM PEPTIDE1{[ac].F.V.V.C.L.[Abu].K.D.R.S.G.D.[Abu].S.P.E.T.S.L.K.C.L.R.L.[am]}$PEPTIDE1,PEPTIDE1,5:R3-22:R3$$$V2.0) | -4.42% | 0.29% | 9.93%
CC[C@H](NC(=O)[C@H](CC(C)C)NC(=O)[C@H](Cc1ccccc1)NC(C)=O)C(=O)N[C@@H](CCCCN)C(=O)N[C@@H](CC(=O)O)C(=O)N[C@@H](CCCNC(=N)N)C(=O)N[C@@H](CO)C(=O)NCC(=O)N[C@@H](CC(=O)O)C(=O)N[C@@H](CC)C(=O)N[C@@H](CO)C(=O)N1CCC[C@H]1C(=O)N[C@@H](CCC(=O)O)C(=O)N[C@H](C(=O)N[C@@H](CO)C(=O)N[C@@H](CC(C)C)C(=O)N[C@@H](CCCCN)C(N)=O)[C@@H](C)O [C1, CD160(59–75)^(C61X,C68X)] (HELM PEPTIDE1{[ac].F.L.[Abu].K.D.R.S.G.D.[Abu].S.P.E.T.S.L.K.[am]}$$$$V2.0) | 4.03% | 2.63% | 1.99%
